Data published in US8178704B2, “Inositol-phosphate derivatives and method of detecting inositol-1-phosphate” (CIS Bio International, priority 2004, dated 2012).
“Also recorded” adds a separate entry of the source.

How the values were obtained:
[1] = tested on: anti-IP1 antibody labeled with europium cryptate; experiment: HTRF test, specificity of the anti-IP1 antibodies (competition with IP1-CY5); type: binding; conditions: competition with IP1-CY5 conjugate; FIG. 12
Description: All the solutions are prepared in 100 mM HEPES buffer pH 7 containing 0.1% BSA and 0.4 M KF.NB. 50 μl of solution of competitors are distributed into the wells of a black bottom microtiter plate so as to obtain the following final concentrations: myo-inositol (10 nM to 1 mM), IP1 Sigma (1 nM to 1 mM), IP2 (1 nM to 100 μM), IP3 (1 nM to 100 μM), PiP2 (1 nM to 100 μM). 50 μl of a 10 nM solution of IP1-CY5 conjugate of Example 10, 50 μl of a solution containing 1.5 nM of an anti-IP1 antibody labeled beforehand with europium cryptate are then distributed in the order indicated. Two wells are also distributed in which the 50 μl of competitors are replaced with 50 μl of buffer so as to constitute blanks (negative controls). The mixture is incubated for 2 h at 4° C. and a time-resolved fluorescence measurement is performed (td=50 μs, tg=400 μs) at 620 nm and 665 nm on a Rubystar® apparatus (BMG Labtech). The ΔF values are calculated using the blank values as reference. The percentages of inhibition obtained with the various competitors are then calculated with the delta F values taking, as 100% value, the signal obtained in the presence of an excess of the IP1 competitor.

anti-IP1 antibodies = experiment: Specificity of the anti-IP1 antibodies evaluated by competition ELISA; type: binding, mouse; conditions: competition with plate-bound IP1-biotin; competitors 1 nM to 100 μM (myo-inositol 10 nM to 1 mM)
Description: NUNC 96-well microtiter plates coated with streptavidin (13 pmol/well) are used. 100 μl of IP1-biotin conjugate prepared according to Example 9 at a concentration of 0.25 μg/ml are distributed and the mixture is incubated for 2 h 30 min at room temperature with stirring. The mixture is washed three times with water containing 0.1% Tween20. 50 μl of solutions of competitors are added so as to prepare the following final concentration ranges: myo-inositol (10 nM at 1 mM), IP1 Sigma (1 nM to 100 μM), IP2 (1 nM to 100 μM), IP3 (1 nM to 100 μM), PiP2 (1 nM to 100 μM) as well as 50 μl of culture supernatants secreting anti-IP1 antibodies. The mixture is incubated for 16 h at 4° C. and then washed three times with water containing 0.1% Tween20. 100 μl of conjugate anti-IgG (mouse)-peroxidase (Sigma # A 0168) diluted 1/60 000 in PBS 0.3% BSA are added. The mixture is incubated for 1 h at room temperature with stirring and then three washes are performed with 10 PBS 0.1% Tween20. 100 μl of TMB substrate (Sigma # T 8665) are distributed and the mixture is incubated for 30 min at room temperature with stirring and then 100 μl of stop reagent (Sigma # S5814) are distributed and the optical densities are measured at 450 nm.
The optical density at 450 nm is plotted against the logarithm of the concentration of compound whose competition it is desired to test. For all the compounds tested in competition, the maximum optical density OD450˜1.5 is observed at the lowest concentrations (1 nM).

mGlu5 receptor = experiment: IP1 assay (TR-FRET) on HEK-293 cells expressing the mGlu5 receptor, effect of an inverse agonist; type: cell-based; conditions: MPEP 5 nM to 100 μM, 1 hour; FIGS. 16A, 16B
Description: Incubation is performed for 1 hour at 37° C., 5% CO2.
When the constitutive activity of the mGluR5 receptor is blocked by the addition of MPEP, that will lead to a decrease in the production of intracellular IP1. […] This signal may be either the intensity ratio E665/E620 or the delta F.

mGlu1 receptor = target: T1, mGlu1 receptor (Homo sapiens, UniProt Q13255); experiment: IP1 assay (TR-FRET) on HEK-293 cells transiently expressing the mGlu1 receptor, effect of a positive allosteric modulator; type: cell-based; conditions: Ro 01-6128 100 nM to 3 mM, 30 min; FIGS. 15A, 15B
T1 construct: expressed in transfected cells; host or cells: HEK-293 cells, transient, electroporation
Description: Incubation is performed for 3 h at 37° C., 5% CO2, saturated with moisture, before changing the medium for 100 μl of DMEM containing glutamax (glutamine not degradable to glutamate) and free of serum. Incubation is performed overnight at 37° C. in an incubator containing 5% CO2, saturated with moisture.
This signal may be either the intensity ratio E665/E620, or the delta F.

T1 sequence (Q13255 19-1194): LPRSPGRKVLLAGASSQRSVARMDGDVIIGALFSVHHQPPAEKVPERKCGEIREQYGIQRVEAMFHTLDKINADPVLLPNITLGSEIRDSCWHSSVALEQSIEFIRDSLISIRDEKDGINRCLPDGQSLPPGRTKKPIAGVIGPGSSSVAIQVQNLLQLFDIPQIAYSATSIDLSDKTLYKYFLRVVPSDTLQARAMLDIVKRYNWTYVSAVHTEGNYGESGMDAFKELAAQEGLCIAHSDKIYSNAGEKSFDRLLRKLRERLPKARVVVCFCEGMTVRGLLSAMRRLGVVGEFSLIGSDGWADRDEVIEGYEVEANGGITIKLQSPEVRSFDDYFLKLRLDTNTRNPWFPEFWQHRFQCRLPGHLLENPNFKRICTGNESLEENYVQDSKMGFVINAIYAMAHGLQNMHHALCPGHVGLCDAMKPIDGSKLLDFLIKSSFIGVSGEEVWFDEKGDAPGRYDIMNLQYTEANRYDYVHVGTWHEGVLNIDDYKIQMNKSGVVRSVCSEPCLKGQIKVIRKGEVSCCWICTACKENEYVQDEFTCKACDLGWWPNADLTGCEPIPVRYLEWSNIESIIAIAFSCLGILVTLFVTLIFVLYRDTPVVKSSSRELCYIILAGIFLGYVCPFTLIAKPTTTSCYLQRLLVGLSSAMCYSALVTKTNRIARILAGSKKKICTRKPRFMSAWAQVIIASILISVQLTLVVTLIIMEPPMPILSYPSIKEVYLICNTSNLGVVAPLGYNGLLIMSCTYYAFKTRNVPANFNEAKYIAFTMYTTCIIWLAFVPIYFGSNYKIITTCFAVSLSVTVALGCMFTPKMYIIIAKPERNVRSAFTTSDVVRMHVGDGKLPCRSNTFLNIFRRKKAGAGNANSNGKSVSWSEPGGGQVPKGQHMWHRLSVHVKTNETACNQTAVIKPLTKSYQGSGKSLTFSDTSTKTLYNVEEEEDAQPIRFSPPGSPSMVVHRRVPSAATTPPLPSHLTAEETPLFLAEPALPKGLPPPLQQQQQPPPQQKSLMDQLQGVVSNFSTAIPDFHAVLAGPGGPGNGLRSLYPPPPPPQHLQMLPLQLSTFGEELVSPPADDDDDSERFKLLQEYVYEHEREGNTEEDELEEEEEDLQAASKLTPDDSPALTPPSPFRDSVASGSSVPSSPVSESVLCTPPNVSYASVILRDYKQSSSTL

## O=P(O)(O)OC1[C@H](O)[C@H](O)C(O)[C@H](O)[C@H]1O (stereo partly drawn) [IP1]
[1]
  inhibition of the signal by the competitor (HTRF, delta F): only the use of IP1 as competitor makes it possible to measure inhibition of the signal
anti-IP1 antibodies
  decrease in the signal (optical density at 450 nm) caused by the competitor: induces a reduction in the signal for concentrations below the micromolar range; also recorded: only the use of IP1 as competitor makes it possible to measure inhibition of the signal

## Cc1cccc(C#Cc2ccccc2)n1 [MPEP, 2-methyl-6-(phenylethynyl)pyridine]
mGlu5 receptor
  TR-FRET signal (E665/E620 ratio or delta F) as a function of inverse agonist concentration: the signal for the assay will increase as a function of the concentration of inverse agonist

## CCOC(=O)NC(=O)C(c1ccccc1)c1ccccc1 [PAM]
mGlu1 receptor
  TR-FRET signal (E665/E620 ratio or delta F) as a function of PAM concentration: the signal will decrease as a function of the PAM concentration

## O[C@H]1[C@H](O)[C@@H](O)[C@H](O)[C@@H](O)[C@H]1O [myo-inositol]
anti-IP1 antibodies
  decrease in the signal (optical density at 450 nm) caused by the competitor: does not cause a decrease in the signal even at concentrations of 1 mM

## phosphatidylinositol 4,5-biphosphate [PIP2]
anti-IP1 antibodies
  decrease in the signal (optical density at 450 nm) caused by the competitor: not recognized by the antibody
